# Source: PMC5228619 (Cell chemical biology, 2016)
# Experiments:
# [1] = tested on: TMP-resistant MRSA and MSSA clinical isolates; experiment: Clinical antibiotic susceptibility; assay type: cell-based, Staphylococcus aureus; conditions: all strains; CLSI breakpoint standards
# UCH MSSA 1 (dfrG) = experiment: MIC against clinical isolate UCH MSSA 1; assay type: cell-based, Staphylococcus aureus
# UCH MRSA 1 (dfrG) = experiment: MIC against clinical isolate UCH MRSA 1; assay type: cell-based, Staphylococcus aureus
# HH MRSA 1144 (dfrA) = experiment: MIC against clinical isolate HH MRSA 1144; assay type: cell-based, Staphylococcus aureus
# HH MRSA 1184 (dfrK) = experiment: MIC against clinical isolate HH MRSA 1184; assay type: cell-based, Staphylococcus aureus
# ATCC 43300 (Sa43300) = experiment: MIC against ATCC 43300; assay type: cell-based, Staphylococcus aureus
# UCH MRSA 121 (dfrG) = experiment: MIC against clinical isolate UCH MRSA 121; assay type: cell-based, Staphylococcus aureus
# HH MRSA 714 (dfrG) = experiment: MIC against clinical isolate HH MRSA 714; assay type: cell-based; conditions: Staphylococcus aureus
# UCH MRSA 115 (dfrA) = experiment: MIC against clinical isolate UCH MRSA 115; assay type: cell-based, Staphylococcus aureus
# UCH MRSA 127 (dfrG) = experiment: MIC against clinical isolate UCH MRSA 127; assay type: cell-based, Staphylococcus aureus
# [2] = tested on: TMP-resistant MRSA and MSSA clinical isolates; experiment: MIC against panel of TMP-resistant clinical isolates; assay type: cell-based, Staphylococcus aureus
# [3] = tested on: S. aureus with dfrB point mutations; conditions: point mutations in chromosomal dfrB, ref Dale et al., 1997, cited from earlier work
# [4] = tested on: multi-drug resistant MRSA ST398 (dfrK); conditions: dfrK in swine MRSA ST398; ref Kadlec et al. 2010; cited from earlier work
# [5] = Staphylococcus aureus, ATCC43300
# [6] = UCH MSSA 1 (dfrG), sinus cavity isolate
# [7] = HH MRSA 1144 (dfrA), SSTI isolate
# [8] = HH MRSA 1184 (dfrK), sputum isolate
# [9] = ATCC 43300, no TMP resistance gene
# [10] = UCH MRSA 121 (dfrG), sputum isolate
# [11] = UCH MRSA 115 (dfrA), SSTI isolate
# [12] = UCH MRSA 127 (dfrG), SSTI isolate
smiles,measurement,setting,value
CN[C@H](CC(C)C)C(=O)N[C@H]1C(=O)N[C@@H](CC(N)=O)C(=O)N[C@H]2C(=O)N[C@H]3C(=O)N[C@H](C(=O)N[C@H](C(=O)O)c4cc(O)cc(O)c4-c4cc3ccc4O)[C@H](O)c3ccc(c(Cl)c3)Oc3cc2cc(c3O[C@@H]2O[C@H](CO)[C@@H](O)[C@H](O)[C@H]2O[C@H]2C[C@](C)(N)[C@H](O)[C@H](C)O2)Oc2ccc(cc2Cl)[C@H]1O [vancomycin],Susceptibility based on breakpoint MICs,[1],susceptible
CO[C@H]1/C=C/O[C@@]2(C)Oc3c(C)c(O)c4c(O)c(c(/C=N/N5CCN(C)CC5)c(O)c4c3C2=O)NC(=O)/C(C)=C\C=C\[C@H](C)[C@H](O)[C@@H](C)[C@@H](O)[C@@H](C)[C@H](OC(C)=O)[C@@H]1C [rifampin],Susceptibility based on breakpoint MICs,[1],susceptible
"CCc1nc(N)nc(N)c1C#C[C@H](C)c1cc2c(c(-c3ccc(C(=O)O)cc3)c1)OCO2 [UCP1206, (R)-4-(6-(4-(2,4-diamino-6-ethylpyrimidin-5-yl)but-3-yn-2-yl)benzo[d][1,3]dioxol-4-yl)benzoic acid]",MIC,"UCH MSSA 1 (dfrG); Staphylococcus aureus, MSSA",1.25 µg/mL
same,MIC,"UCH MRSA 1 (dfrG); Staphylococcus aureus, MRSA",2.5 µg/mL
same,MIC,"HH MRSA 1144 (dfrA); Staphylococcus aureus, MRSA",> 10 µg/mL
same,MIC,"HH MRSA 1184 (dfrK); Staphylococcus aureus, MRSA",1.25 µg/mL
same,MIC,ATCC 43300 (Sa43300); [5],0.0098 µg/mL
same,MIC,"UCH MRSA 121 (dfrG); Staphylococcus aureus, MRSA",2.5 µg/mL
same,MIC,HH MRSA 714 (dfrG),2.5 µg/mL
same,MIC,"UCH MRSA 115 (dfrA); Staphylococcus aureus, MRSA",> 10 µg/mL
same,MIC,"UCH MRSA 127 (dfrG); Staphylococcus aureus, MRSA",1.25 µg/mL
CCc1nc(N)nc(N)c1C#C[C@@H](C)c1cc(-c2ccc(C(=O)O)cc2)ccc1OC [UCP1164],MIC,UCH MSSA 1 (dfrG); [6],5 µg/mL
same,MIC,"UCH MRSA 1 (dfrG); UCH MRSA 1 (dfrG), blood isolate",2.5 µg/mL
same,MIC,HH MRSA 1144 (dfrA); [7],5 µg/mL
same,MIC,HH MRSA 1184 (dfrK); [8],0.625 µg/mL
same,MIC,ATCC 43300 (Sa43300); [9],0.0391 µg/mL
same,MIC,UCH MRSA 121 (dfrG); [10],5 µg/mL
same,MIC,UCH MRSA 115 (dfrA); [11],10 µg/mL
same,MIC,UCH MRSA 127 (dfrG); [12],2.5 µg/mL
CCc1nc(N)nc(N)c1C#CC(C)c1cc2c(c(-c3ccc(C(=O)O)cc3)c1)OCO2 (stereo not shown) [UCP1191],MIC,UCH MSSA 1 (dfrG); [6],0.3125 µg/mL
same,MIC against strains carrying dfrG and dfrK,[2]; dfrG- and dfrK-possessing strains,0.1563−0.625 μg/mL
same,MIC,HH MRSA 1144 (dfrA); [7],10 µg/mL
same,MIC,HH MRSA 1184 (dfrK); [8],0.1563 µg/mL
same,MIC,UCH MRSA 121 (dfrG); [10],0.625 µg/mL
same,MIC,UCH MRSA 115 (dfrA); [11],20 µg/mL
same,MIC,UCH MRSA 127 (dfrG); [12],0.1563 µg/mL
"CCc1nc(N)nc(N)c1C#C[C@@H](C)c1cc2c(c(-c3ccc(C(=O)O)cc3)c1)OCO2 [UCP1205, (S)-4-(6-(4-(2,4-diamino-6-ethylpyrimidin-5-yl)but-3-yn-2-yl)benzo[d][1,3]dioxol-4-yl)benzoic acid]",MIC,"UCH MSSA 1 (dfrG); Staphylococcus aureus, MSSA",0.312 µg/mL
same,MIC,"UCH MRSA 1 (dfrG); Staphylococcus aureus, MRSA",0.625 µg/mL
same,MIC,"HH MRSA 1144 (dfrA); Staphylococcus aureus, MRSA",> 10 µg/mL
same,MIC,"HH MRSA 1184 (dfrK); Staphylococcus aureus, MRSA",0.312 µg/mL
same,MIC,"UCH MRSA 121 (dfrG); Staphylococcus aureus, MRSA",0.625 µg/mL
same,MIC,HH MRSA 714 (dfrG),0.625 µg/mL
same,MIC,"UCH MRSA 115 (dfrA); Staphylococcus aureus, MRSA",> 10 µg/mL
same,MIC,"UCH MRSA 127 (dfrG); Staphylococcus aureus, MRSA",0.312 µg/mL
"COc1cc(Cc2cnc(N)nc2N)cc(OC)c1OC [TMP, trimethoprim, reference compound]",MIC,[3]; 1990s,256 µg/mL
same,Increase in MIC,[3],~ 800 fold
same,MIC,"UCH MSSA 1 (dfrG); Staphylococcus aureus, MSSA",> 1000 µg/mL
same,MIC,[4],256 µg/mL
same,MIC,"UCH MRSA 1 (dfrG); Staphylococcus aureus, MRSA",> 1000 µg/mL
same,MIC,"HH MRSA 1184 (dfrK); Staphylococcus aureus, MRSA",> 1000 µg/mL
same,MIC,ATCC 43300 (Sa43300); [5],0.312 µg/mL
same,MIC,"UCH MRSA 121 (dfrG); Staphylococcus aureus, MRSA",> 1000 µg/mL
same,MIC,HH MRSA 714 (dfrG),> 1000 µg/mL
same,MIC,"UCH MRSA 115 (dfrA); Staphylococcus aureus, MRSA",250 µg/mL
same,MIC,"UCH MRSA 127 (dfrG); Staphylococcus aureus, MRSA",> 1000 µg/mL
CCCCCCCCCC(=O)N[C@@H](Cc1c[nH]c2ccccc12)C(=O)N[C@H](CC(N)=O)C(=O)N[C@@H](CC(=O)O)C(=O)N[C@@H]1C(=O)NCC(=O)N[C@@H](CCCN)C(=O)N[C@@H](CC(=O)O)C(=O)N[C@H](C)C(=O)N[C@@H](CC(=O)O)C(=O)NCC(=O)N[C@H](CO)C(=O)N[C@@H]([C@H](C)CC(=O)O)C(=O)N[C@@H](CC(=O)c2ccccc2N)C(=O)O[C@@H]1C [daptomycin],Susceptibility based on breakpoint MICs,[1],susceptible
CC(=O)NC[C@H]1CN(c2ccc(N3CCOCC3)c(F)c2)C(=O)O1 [linezolid],Susceptibility based on breakpoint MICs,[1],susceptible
CCc1nc(N)nc(N)c1C#C[C@@H](C)c1cc(OC)cc(-c2ccc(C(=O)O)cc2)c1 [UCP1172],MIC against strains possessing dfrA,[2]; dfrA-possessing strains,does not significantly inhibit
same,MIC,HH MRSA 1144 (dfrA); [7],5 µg/mL
same,MIC,HH MRSA 1184 (dfrK); [8],0.3125 µg/mL
same,MIC,ATCC 43300 (Sa43300); [9],0.0098 µg/mL
same,MIC,UCH MRSA 121 (dfrG); [10],0.625 µg/mL
same,MIC,UCH MRSA 115 (dfrA); [11],5 µg/mL
same,MIC,UCH MRSA 127 (dfrG); [12],0.3125 µg/mL
"Cc1cc(NS(=O)(=O)c2ccc(N)cc2)no1 [SMX, sulfamethoxazole, reference compound]",MIC,"UCH MSSA 1 (dfrG); Staphylococcus aureus, MSSA",> 500 µg/mL
same,MIC,"UCH MRSA 1 (dfrG); Staphylococcus aureus, MRSA",> 500 µg/mL
same,MIC,"HH MRSA 1144 (dfrA); Staphylococcus aureus, MRSA",> 500 µg/mL
same,MIC,"UCH MRSA 121 (dfrG); Staphylococcus aureus, MRSA",> 500 µg/mL
same,MIC,HH MRSA 714 (dfrG),> 500 µg/mL
same,MIC,"UCH MRSA 115 (dfrA); Staphylococcus aureus, MRSA",500 µg/mL
same,MIC,"UCH MRSA 127 (dfrG); Staphylococcus aureus, MRSA",16 µg/mL
